The numbers were not newly measured in PubChem BioAssay AID1259410 (Chemical Carcinogenesis Research Information System (CCRIS), 2018), which cites them from elsewhere.

The series concerns rodent tumor promotion studies, tumor incidence. The series is described as follows: CCRIS tumor promotion studies.

The structures appear in SMILES notation.

`CCCCCCCCCCCC(=O)OCCOC[C@@H](OCCO)[C@H]1OC[C@@H](OCCO)[C@H]1OCCO`: the outcome (Carcinogen: 7,12-DIMETHYLBENZ(A)ANTHRACENE, Doses [Carcinogen]: TOP, Route [Carcinogen]: DERMAL, Route [Promoter]: DERMAL, Species: MOUSE, Strain/Sex: MALE) is “integumentary system (skin)”.

As to `CC1=C(/C=C/C(C)=C/C=C/C(C)=C/C(=O)O)C(C)(C)CCC1`, for the setting “Carcinogen: 7,12-DIMETHYLBENZ[A]ANTHRACENE, 57-97-6, Doses [Carcinogen]: 50 NMOL IN 200 µL ACETONE 2/WK FOR 16 WK, Doses [Promoter]: 0, 0.5, 25 NMOL IN 200 µL ACETONE APPLIED 1 HR PRIOR TO CARCINOGEN DOSES 2/WK FOR 16 WK (STUDY DURATION: 16 WK), Doses [Promoter]: 0, 0.5, 25 NMOL IN 200 µL ACETONE APPLIED 1 HR PRIOR TO CARCINOGEN DOSES 2/WK FOR 16 WK (STUDY DURATION: 16 WK), Route [Carcinogen]: DERMAL, Route [Promoter]: DERMAL, Species: MOUSE, Strain/Sex: CD-1/FEMALE”, the outcome is “skin: tumors”.

Regarding `CCCCCCOc1cc(C)c(O)c(C)c1C`, the outcome (Carcinogen: DIETHYLNITROSAMINE, 55-18-5, N-METHYL-N-NITROSOUREA, 684-93-5, N-BUTYL-N-(4-HYDROXYBUTYL)NITROSAMINE, 3817-11-6, DIMETHY, Carcinogen: DIETHYLNITROSAMINE, 55-18-5, N-METHYL-N-NITROSOUREA, 684-93-5, N-BUTYL-N-(4-HYDROXYBUTYL)NITROSAMINE, 3817-11-6, DIMETHY, Doses [Carcinogen]: 100 MG/KG BW DEN ONCE FOLLOWED BY 20 MG/KG BW MNU 4 TIMES AND 0.05% BBN IN DRINKING WATER DURING FIRST 2 WK THEN 40 MG/K, Doses [Promoter]: 0, 1% IN THE DIET FOR 24 WK BEGINNING 1 DAY POST CARCINOGEN TREATMENT (STUDY DURATION: 28 WK), Route [Carcinogen]: INTRAPERITONEAL, INTRAPERITONEAL, ORAL, SUBCUTANEOUS, ORAL, Route [Carcinogen]: INTRAPERITONEAL, INTRAPERITONEAL, ORAL, SUBCUTANEOUS, ORAL, Route [Promoter]: ORAL, Species: RAT, Strain/Sex: F344/MALE) is reported as “tongue: papilloma; forestomach: papilloma” and the outcome (Carcinogen: ETHYLNITROSOURETHANE, 614-95-9, Doses [Carcinogen]: 0.01% IN DRINKING WATER FOR 4 WK, Doses [Promoter]: 0, 0.25% IN DIET FOR 36 WK BEGINNING POST CARCINOGEN TREATMENT (STUDY DURATION: 40 WK), Route [Carcinogen]: ORAL, Route [Promoter]: ORAL, Species: RAT, Strain/Sex: F344/MALE) is given as “forestomach: papilloma, carcinoma”.

With `[O-][Cl+3]([O-])([O-])O`, the outcome is recorded as “thyroid: no increase in tumors even though increased follicular cell hyperplasia” (Carcinogen: N-bis(2-hydroxypropyl)nitrosamine, 53609-64-6, Doses [Carcinogen]: 0.08 and 0.2% in drinking water for 4 wks at 7-10 wks of age, study duration to 39 wk of age, Doses [Promoter]: In utero (0.1% in diet of dams) and then in drinking water of weaned offspring for 2 wk. Dimethylbenz[a]anthracene, 57-9, Route [Carcinogen]: Oral, Route [Promoter]: In utero and in drinking water, Species: Rat, Strain/Sex: F344/Female (23, 16/group)); “none found” (Carcinogen: N-bis(2-hydroxypropyl)nitrosamine, 53609-64-6, Doses [Carcinogen]: 0.08 and 0.2% in drinking water for 4 wks at 7-10 wks of age, study duration to 39 wk of age, Doses [Promoter]: In utero (0.1% in diet of dams) and then in drinking water of weaned offspring for 2 wk, Route [Carcinogen]: Oral, Route [Promoter]: In utero and in drinking water, Species: Rat, Strain/Sex: F344/Male (12-15/group)).

For `C[C@]12CC[C@@H]3c4ccc(O)cc4CC[C@H]3[C@@H]1CCC2=O`, the outcome (Carcinogen: N-METHYL-N-NITROSOUREA, 684-93-5, Doses [Carcinogen]: 1 MG/100 G BW INJECTED INTO LEFT UTERINE TUBE ONCE, Doses [Promoter]: 0, 25 PPM IN DIET BEGINNING 1 WK POST CARCINOGEN TREATMENT (STUDY DURATION: 30 WK), Route [Carcinogen]: INJECTION, Route [Promoter]: ORAL, Species: MOUSE, Strain/Sex: ICR/FEMALE) is reported as “uterus (left): adenocarcinoma”.

Regarding `CCCCCCCCCC(=O)O[C@@]12C[C@@H](C)[C@@]3(O)[C@@H](C=C(CO)C[C@]4(O)C(=O)C(C)=C[C@@H]34)[C@@H]1C2(C)C`, the outcome (Carcinogen: 7,12-DIMETHYLBENZ[A]ANTHRACENE, 57-97-6, Doses [Carcinogen]: 100 NMOL ONCE, Doses [Promoter]: 0, 40 NMOL 2/WK FOR 48 WK (STUDY DURATION: 48 WK), Route [Carcinogen]: DERMAL, Route [Promoter]: DERMAL, Species: MOUSE, Strain/Sex: NMRI) was “skin: tumor”.

With `O=C1C=CC(=O)c2c(O)cccc21`, the outcome by setting is: (Carcinogen: 7,12-DIMETHYLBENZ[A]ANTHRACENE, 57-97-6, Doses [Carcinogen]: 25 NMOL IN 0.2 ML ACETONE ONCE, Doses [Promoter]: 440, 880, 1760 NMOL/MOUSE 1/WK FOR 40 WK BEGINNING 2 WK POST CARCINOGEN DOSE (STUDY DURATION: 42 WK), Doses [Promoter]: 440, 880, 1760 NMOL/MOUSE 1/WK FOR 40 WK BEGINNING 2 WK POST CARCINOGEN DOSE (STUDY DURATION: 42 WK), Route [Carcinogen]: DERMAL, Route [Promoter]: DERMAL, Species: MOUSE, Strain/Sex: SENCAR/FEMALE) “skin: papilloma”; (Carcinogen: 7,12-DIMETHYLBENZ[A]ANTHRACENE, 57-97-6, Doses [Carcinogen]: 25 NMOL IN 0.2 ML ACETONE ONCE, Doses [Promoter]: 1760 NMOL/MOUSE 2/WK FOR 40 WK BEGINNING 2 WK POST CARCINOGEN DOSE (STUDY DURATION: 42 WK), Route [Carcinogen]: DERMAL, Route [Promoter]: DERMAL, Species: MOUSE, Strain/Sex: SENCAR/FEMALE) “skin: papilloma”; (Carcinogen: 7,12-DIMETHYLBENZ[A]ANTHRACENE, 57-97-6, Doses [Carcinogen]: 25 NMOL IN 0.2 ML ACETONE ONCE, Doses [Promoter]: 1760 NMOL/MOUSE 3/WK FOR 40 WK BEGINNING 2 WK POST CARCINOGEN DOSE (STUDY DURATION: 42 WK), Route [Carcinogen]: DERMAL, Route [Promoter]: DERMAL, Species: MOUSE, Strain/Sex: SENCAR/FEMALE) “skin: papilloma”; (Carcinogen: 7,12-DIMETHYLBENZ[A]ANTHRACENE, 57-97-6, Doses [Carcinogen]: 25 NMOL IN 0.2 ML ACETONE ONCE, Doses [Promoter]: 1760 NMOL/MOUSE 3/WK FOR 60 WK BEGINNING 2 WK POST CARCINOGEN DOSE (STUDY DURATION: 60 WK), Route [Carcinogen]: DERMAL, Route [Promoter]: DERMAL, Species: MOUSE, Strain/Sex: SENCAR/FEMALE) “skin: carcinoma”.

Take `Nc1ncn([C@@H]2O[C@H](CO)[C@@H](O)[C@H]2O)c(=O)n1`: the outcome by setting is: (Carcinogen: DIETHYLNITROSAMINE, 55-18-5, Doses [Carcinogen]: 50 MG/KG IN SALINE ADMINISTERED ONCE 18 HR AFTER PARTIAL HEPATECTOMY, Doses [Promoter]: 0, 2.5, 10 MG/KG 2/WK FOR 9 MO BEGINNING POST CARCINOGEN DOSE (STUDY DURATION: 18 MO), Doses [Promoter]: 0, 2.5, 10 MG/KG 2/WK FOR 9 MO BEGINNING POST CARCINOGEN DOSE (STUDY DURATION: 18 MO), Route [Promoter]: INTRAPERITONEAL, Species: RAT, Strain/Sex: F344/MALE) “liver: hepatocellular carcinoma”; (Carcinogen: DIETHYLNITROSAMINE, 55-18-5, Doses [Carcinogen]: 80 MG/KG 1/WK FOR 5 WK, Doses [Promoter]: 0, 5, 10 MG/KG INJECTED 4, 24, AND 48 HR AFTER EACH CARCINOGEN EXPOSURE (STUDY DURATION: 6 MO), Doses [Promoter]: 0, 5, 10 MG/KG INJECTED 4, 24, AND 48 HR AFTER EACH CARCINOGEN EXPOSURE (STUDY DURATION: 6 MO), Route [Carcinogen]: INTRAPERITONEAL, Route [Promoter]: INTRAPERITONEAL, Species: RAT, Strain/Sex: BD6/MALE) “liver: tumor”.

For the compound `C=C(/C=C/C=C(/CO)[C@@H]1CC[C@]2([C@H](CCCO)/C(=C(/C)C=O)CC[C@]2(C)O)[C@@H]1O)CCC=C(C)C`, under “Carcinogen: 7,12-DIMETHYLBENZ[A]ANTHRACENE, 57-97-6, Doses [Carcinogen]: 100 UG ONCE, Doses [Promoter]: 0, 400 NMOL 2/WK FOR 19 WK BEGINNING 1WK POST CARCINOGEN DOSE (STUDY DURATION: 20 WK), Route [Carcinogen]: DERMAL, Route [Promoter]: DERMAL, Species: MOUSE, Strain/Sex: CD-1/FEMALE”, the outcome is “skin: tumor”.

Regarding `C=CC(N)=O`, the outcome (Carcinogen: METHYLNITROSOUREA [684-93-5], Doses [Carcinogen]: 50 MG/KG BW ONCE, Doses [Promoter]: 0, 20, 40 PPM IN DRINKING WATER AFTER CARCINOGEN ADMINISTRATION (STUDY DURATION: 30 WK), Doses [Promoter]: 0, 20, 40 PPM IN DRINKING WATER AFTER CARCINOGEN ADMINISTRATION (STUDY DURATION: 30 WK), Route [Carcinogen]: IP INJECTION, Route [Promoter]: DRINKING WATER, Species: RAT, Strain/Sex: SPRAGUE-DAWLEY/FEMALE (20/GROUP)) was “mammary gland: adenocarcinoma (significant increase in tumor incidence at 40 ppm”.

On to `C=C[C@@]1(C)CC[C@](C)(C(C)C)c2cc3c4c(c[nH]c4c21)C[C@@H](CO)NC(=O)[C@H](C(C)C)N3C`, for which the outcome (Carcinogen: 7,12-DIMETHYLBENZ[A]ANTHRACENE, 57-97-6, Doses [Carcinogen]: 100 UG ONCE, Doses [Promoter]: 0, 5.5 NMOL 2/WK FOR 19 WK BEGINNING 1 WK POST CARCINOGEN DOSE (STUDY DURATION: 20 WK), Route [Carcinogen]: DERMAL, Route [Promoter]: DERMAL, Species: MOUSE, Strain/Sex: CD-1/FEMALE) is “skin: tumor” and the outcome (Carcinogen: 7,12-DIMETHYLBENZ[A]ANTHRACENE, Doses [Carcinogen]: 100 UG ONCE, Doses [Promoter]: 2.5 UG IN ACETONE 2/WK FOR 30 WK, Route [Carcinogen]: DERMAL, Route [Promoter]: DERMAL, Species: MOUSE, Strain/Sex: CD-1/FEMALE) was “integumentary system (skin): papilloma, carcinoma”.

Regarding `NC(=O)c1cccnc1`, where the note is “Carcinogen: DIETHYLNITROSAMINE, 55-18-5, Doses [Carcinogen]: 25 MG/KG ONCE PRECEDED 24 HR BY 70% PARTIAL HEPATECTOMY, Doses [Promoter]: 0, 6.7, 30 MILLIMOLAR IN DRINKING WATER BEGINNING 2 WK POST CARCINOGEN DOSE (STUDY DURATION: 20 MO), Doses [Promoter]: 0, 6.7, 30 MILLIMOLAR IN DRINKING WATER BEGINNING 2 WK POST CARCINOGEN DOSE (STUDY DURATION: 20 MO), Route [Carcinogen]: INTRAPERITONEAL, Route [Promoter]: ORAL, Species: RAT, Strain/Sex: F344/MALE”, the outcome is “kidney: tumor”.
